Assay type in all cases: binding
In experiment [1] the target is T1, scytovirin (SVN) (Scytonema varium, UniProt P86041).
T1 sequence (P86041 1-95): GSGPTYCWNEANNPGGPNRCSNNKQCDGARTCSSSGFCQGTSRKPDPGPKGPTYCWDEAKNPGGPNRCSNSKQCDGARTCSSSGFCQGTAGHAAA
In words: differential scanning calorimetry. The conditions noted are these: 10 mM sodium phosphate pH 7.4, 3 mM sodium azide; 20 µM protein, 60 °C/h; Tm of the complex, not a shift; free SVN in the 2nd table, row 3. An excerpt:
differential scanning calorimetry on scytovirin (SVN)

The target of experiment [2] is T1, scytovirin (SVN). Kind of experiment: isothermal titration calorimetry. As to conditions: 10 mM sodium phosphate pH 7.4, 3 mM sodium azide, 30 °C; one set of identical sites. From the text:
isothermal titration calorimetry on scytovirin (SVN)

Experiment [3] deals with T2, SD1 (structural domain 1 of scytovirin) (Scytonema varium, UniProt P86041).
T2 construct: isolated N-terminal domain SD1 (residues 1-48), recombinant from E. coli, purified
T2 sequence (P86041 1-48): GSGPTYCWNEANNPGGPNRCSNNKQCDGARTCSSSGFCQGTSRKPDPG
Kind of experiment: differential scanning calorimetry. As to conditions: 10 mM sodium phosphate pH 7.4, 3 mM sodium azide; 20 µM protein, 60 °C/h; shift is a decrease (destabilization).

nonamannoside: the “Tm °C” value at scytovirin (SVN) [1] amounted to 56.50 ± 0.05 °C. The Kd on scytovirin (SVN) [2] amounted to 3.99 ± 0.93 µM.

Take tetramannoside: the ΔTm in experiment [3] is ~ 11.5 °C. Moreover, the Kd at scytovirin (SVN) [2] is 17.8 ± 2.75 µM.

The values are drawn from paper PMC9034974, “Physicochemical characterization of the recombinant lectin scytovirin and microbicidal activity of the SD1 domain produced in rice against HIV-1” (Plant Cell Reports, 2022).
